Assay results from ChEMBL document CHEMBL1201862, “PubChem BioAssay data set” (2004).
The source made the active and inactive calls.

Assays:
[1] = molecular target: T1, Carboxy-terminal domain RNA polymerase II polypeptide A small phosphatase 1 (Homo sapiens, UniProt Q9GZU7); test: inhibitors of CTDSP1, concentration-response testing, biochemical assay, absorbance-based, actives from ultra-high-throughput screening (AID 540297); format: functional
T1 sequence (Q9GZU7 whole entry): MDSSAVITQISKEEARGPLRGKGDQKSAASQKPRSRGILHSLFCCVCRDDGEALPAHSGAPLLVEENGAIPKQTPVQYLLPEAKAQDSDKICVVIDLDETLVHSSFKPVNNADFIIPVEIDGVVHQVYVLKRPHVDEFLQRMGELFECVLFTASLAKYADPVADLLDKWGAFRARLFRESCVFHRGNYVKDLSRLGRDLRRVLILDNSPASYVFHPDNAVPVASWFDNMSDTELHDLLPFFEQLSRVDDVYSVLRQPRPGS

[2] = molecular target: DNA (cytosine-5)-methyltransferase 1 (Homo sapiens, UniProt P26358); test: DNMT1 methyltransferase inhibitors, confirmation, biochemical, fluorescent molecular beacon (AID 602386); format: functional
[3] = THP-1 cell cytotoxicity, dose response, cytotoxicity control for Vif-APOBEC3G degradation inhibitor project, THP-1 cells (AID 1117359); format: functional; settings: Human immunodeficiency virus 1, THP-1
Coagulation factor XII = molecular target: T2, Coagulation factor XII (Homo sapiens, UniProt P00748); format: functional;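 also: activated factor XIIa alpha cleaving a fluorogenic AMC peptide substrate; inhibitor potency from loss of enzyme activity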
T2 sequence (P00748 whole entry): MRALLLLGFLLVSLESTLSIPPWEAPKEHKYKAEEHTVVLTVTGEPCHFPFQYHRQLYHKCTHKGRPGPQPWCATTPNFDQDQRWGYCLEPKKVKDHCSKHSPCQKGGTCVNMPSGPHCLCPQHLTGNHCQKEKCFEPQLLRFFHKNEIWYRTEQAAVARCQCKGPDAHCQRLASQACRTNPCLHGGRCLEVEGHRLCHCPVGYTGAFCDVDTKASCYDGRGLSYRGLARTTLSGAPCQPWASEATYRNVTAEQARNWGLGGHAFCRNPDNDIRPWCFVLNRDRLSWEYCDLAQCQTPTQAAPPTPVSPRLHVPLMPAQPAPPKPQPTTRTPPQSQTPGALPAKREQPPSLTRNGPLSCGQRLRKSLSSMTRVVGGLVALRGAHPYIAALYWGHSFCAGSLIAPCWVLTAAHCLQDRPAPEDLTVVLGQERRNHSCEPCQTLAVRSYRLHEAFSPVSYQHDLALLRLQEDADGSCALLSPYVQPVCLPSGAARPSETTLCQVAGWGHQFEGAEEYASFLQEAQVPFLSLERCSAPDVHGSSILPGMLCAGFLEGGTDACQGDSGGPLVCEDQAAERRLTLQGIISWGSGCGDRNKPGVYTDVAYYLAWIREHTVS

[4] = molecular target: Ras and Rab interactor 1/Tyrosine-protein kinase ABL1 (Homo sapiens, UniProt P00519+Q13671); format: functional;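 also: biochemical TR-FRET dose-response test measuring inhibition of binding between Rin1 and Abl proteins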
[5] = miR-122 activators in hepatoma reporter cells, dose response, cell-based, Huh7 psiCHECK-miR122, Renilla luciferase, cherry-picked (AID 651956); format: functional;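 also: huh7 hepatoma cells stably carrying a psiCHECK-2 miR-122 sensor plasmid; renilla luciferase signal reporting endogenous miR-122 activity after 48 h compound exposure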
[6] = molecular target: T3, Long-chain-fatty-acid--AMP ligase FadD28 (Mycobacterium tuberculosis, UniProt P9WQ59); test: Fluorescence polarization aasay to screen for inhibitors that compete for the binding of FadD28 to a bisubstrate Measured in Biochemical System Using Plate Reader - 2147-01_Inhibitor_Dose_CherryPick_Activity.; format: functional, Mycobacterium tuberculosis H37Rv
T3 sequence (P9WQ59 whole entry): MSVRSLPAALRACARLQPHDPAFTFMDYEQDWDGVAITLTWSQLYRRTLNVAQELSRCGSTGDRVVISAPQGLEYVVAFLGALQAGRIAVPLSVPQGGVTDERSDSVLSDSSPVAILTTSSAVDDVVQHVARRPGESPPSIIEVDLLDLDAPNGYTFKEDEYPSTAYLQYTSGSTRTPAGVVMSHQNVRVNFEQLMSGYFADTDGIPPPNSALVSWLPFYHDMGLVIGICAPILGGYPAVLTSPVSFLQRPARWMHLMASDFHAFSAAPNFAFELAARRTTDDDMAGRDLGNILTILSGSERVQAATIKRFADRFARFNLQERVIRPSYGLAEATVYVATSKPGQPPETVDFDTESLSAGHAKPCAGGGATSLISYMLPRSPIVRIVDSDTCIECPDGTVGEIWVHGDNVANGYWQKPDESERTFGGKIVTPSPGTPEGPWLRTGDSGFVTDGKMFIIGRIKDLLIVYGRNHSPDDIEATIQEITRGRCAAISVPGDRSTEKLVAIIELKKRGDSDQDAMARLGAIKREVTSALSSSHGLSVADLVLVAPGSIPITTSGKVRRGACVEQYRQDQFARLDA

HeLa = test: HeLa cell cytotoxicity, dose response, cytotoxicity control for MITF activator project, CellTiter-Glo luminescence, cherry-pick samples (AID 540259); format: functional, cell-based; settings: Homo sapiens
Cytochrome P450 2C19 = Cytochrome P450 2C19 (Homo sapiens, UniProt P33261); test: Cytochrome panel assay with activity outcomes. Panel member name: p450-cyp2c19 Compounds with AC50 equal or less than 10 uM are considered active; format: functional; settings: read-out: AC50
Protein skinhead-1 = molecular target: T4, Protein skinhead-1 (Caenorhabditis elegans, UniProt P34707); format: functional
T4 sequence (P34707 whole entry): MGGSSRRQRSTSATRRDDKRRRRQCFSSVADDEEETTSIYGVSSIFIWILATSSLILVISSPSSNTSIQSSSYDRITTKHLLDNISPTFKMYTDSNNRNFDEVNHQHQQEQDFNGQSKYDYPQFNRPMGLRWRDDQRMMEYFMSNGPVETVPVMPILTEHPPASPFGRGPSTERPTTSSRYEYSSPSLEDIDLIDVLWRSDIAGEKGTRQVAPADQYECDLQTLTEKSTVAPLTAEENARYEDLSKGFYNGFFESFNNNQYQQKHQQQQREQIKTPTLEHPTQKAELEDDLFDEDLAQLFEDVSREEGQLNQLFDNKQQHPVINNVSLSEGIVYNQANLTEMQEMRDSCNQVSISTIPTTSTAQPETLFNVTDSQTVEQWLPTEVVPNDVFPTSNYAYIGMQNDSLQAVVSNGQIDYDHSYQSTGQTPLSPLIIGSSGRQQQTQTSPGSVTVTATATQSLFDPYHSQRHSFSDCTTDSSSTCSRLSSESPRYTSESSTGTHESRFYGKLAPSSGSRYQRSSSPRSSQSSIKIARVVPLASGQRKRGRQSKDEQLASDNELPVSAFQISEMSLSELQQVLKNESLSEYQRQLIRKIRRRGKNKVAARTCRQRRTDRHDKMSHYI

Cytochrome P450 1A2 = molecular target: T5, Cytochrome P450 1A2 (Homo sapiens, UniProt P05177);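 also: PubChem cytochrome P450 panel assay, CYP1A2 panel member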
T5 sequence (P05177 whole entry): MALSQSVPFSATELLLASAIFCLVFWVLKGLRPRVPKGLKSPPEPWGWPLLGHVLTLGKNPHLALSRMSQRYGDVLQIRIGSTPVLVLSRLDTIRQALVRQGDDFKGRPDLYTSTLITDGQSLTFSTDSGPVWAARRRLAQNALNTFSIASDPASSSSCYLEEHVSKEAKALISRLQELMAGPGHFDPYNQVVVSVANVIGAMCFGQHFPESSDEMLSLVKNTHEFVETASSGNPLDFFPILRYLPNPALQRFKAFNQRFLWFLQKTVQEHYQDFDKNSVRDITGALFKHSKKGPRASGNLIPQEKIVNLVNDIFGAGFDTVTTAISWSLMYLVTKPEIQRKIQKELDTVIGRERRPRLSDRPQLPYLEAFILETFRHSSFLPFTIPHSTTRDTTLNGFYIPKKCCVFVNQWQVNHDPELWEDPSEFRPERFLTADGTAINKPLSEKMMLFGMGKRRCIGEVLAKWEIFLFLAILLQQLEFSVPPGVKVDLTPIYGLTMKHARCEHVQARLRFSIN

Cytochrome P450 2C9 = Cytochrome P450 2C9 (Homo sapiens, UniProt P11712)
[7] = molecular target: Heat shock protein HSP 90-alpha (Homo sapiens, UniProt P07900); format: functional, organism-based
[8] = molecular target: T6, Endoribonuclease toxin MazF (Escherichia coli K-12, UniProt P0AE70); test: MazF toxin RNase activators, dose response, biochemical, fluorescence, single-stranded RNA substrate, uHTS hits (AID 588481); format: functional
T6 sequence (P0AE70 whole entry): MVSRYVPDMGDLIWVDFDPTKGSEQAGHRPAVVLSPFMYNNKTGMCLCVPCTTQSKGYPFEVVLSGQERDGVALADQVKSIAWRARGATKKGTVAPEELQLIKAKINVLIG

[9] = molecular target: T6, Endoribonuclease toxin MazF; test: fluorescent RNA oligo signal without MazF, dose response, counter-screen for MazEF activator project, biochemical, fluorescence, single-stranded RNase substrate (AID 588502); format: functional

Cytochrome P450 2C9, sequence (P11712 whole entry): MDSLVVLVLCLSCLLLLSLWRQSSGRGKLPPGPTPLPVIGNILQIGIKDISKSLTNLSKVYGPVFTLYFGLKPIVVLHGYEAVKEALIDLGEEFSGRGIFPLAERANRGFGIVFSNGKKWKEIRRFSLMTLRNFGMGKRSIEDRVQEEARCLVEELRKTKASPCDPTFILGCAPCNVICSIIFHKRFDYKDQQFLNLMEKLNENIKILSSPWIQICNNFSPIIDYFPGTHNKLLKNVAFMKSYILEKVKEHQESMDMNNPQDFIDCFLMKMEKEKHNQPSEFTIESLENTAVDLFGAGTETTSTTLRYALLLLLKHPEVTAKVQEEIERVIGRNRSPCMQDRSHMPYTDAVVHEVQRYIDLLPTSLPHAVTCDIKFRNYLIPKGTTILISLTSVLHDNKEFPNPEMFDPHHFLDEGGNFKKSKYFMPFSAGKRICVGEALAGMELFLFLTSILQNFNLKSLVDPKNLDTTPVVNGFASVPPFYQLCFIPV
DNA (cytosine-5)-methyltransferase 1, sequence (P26358 whole entry): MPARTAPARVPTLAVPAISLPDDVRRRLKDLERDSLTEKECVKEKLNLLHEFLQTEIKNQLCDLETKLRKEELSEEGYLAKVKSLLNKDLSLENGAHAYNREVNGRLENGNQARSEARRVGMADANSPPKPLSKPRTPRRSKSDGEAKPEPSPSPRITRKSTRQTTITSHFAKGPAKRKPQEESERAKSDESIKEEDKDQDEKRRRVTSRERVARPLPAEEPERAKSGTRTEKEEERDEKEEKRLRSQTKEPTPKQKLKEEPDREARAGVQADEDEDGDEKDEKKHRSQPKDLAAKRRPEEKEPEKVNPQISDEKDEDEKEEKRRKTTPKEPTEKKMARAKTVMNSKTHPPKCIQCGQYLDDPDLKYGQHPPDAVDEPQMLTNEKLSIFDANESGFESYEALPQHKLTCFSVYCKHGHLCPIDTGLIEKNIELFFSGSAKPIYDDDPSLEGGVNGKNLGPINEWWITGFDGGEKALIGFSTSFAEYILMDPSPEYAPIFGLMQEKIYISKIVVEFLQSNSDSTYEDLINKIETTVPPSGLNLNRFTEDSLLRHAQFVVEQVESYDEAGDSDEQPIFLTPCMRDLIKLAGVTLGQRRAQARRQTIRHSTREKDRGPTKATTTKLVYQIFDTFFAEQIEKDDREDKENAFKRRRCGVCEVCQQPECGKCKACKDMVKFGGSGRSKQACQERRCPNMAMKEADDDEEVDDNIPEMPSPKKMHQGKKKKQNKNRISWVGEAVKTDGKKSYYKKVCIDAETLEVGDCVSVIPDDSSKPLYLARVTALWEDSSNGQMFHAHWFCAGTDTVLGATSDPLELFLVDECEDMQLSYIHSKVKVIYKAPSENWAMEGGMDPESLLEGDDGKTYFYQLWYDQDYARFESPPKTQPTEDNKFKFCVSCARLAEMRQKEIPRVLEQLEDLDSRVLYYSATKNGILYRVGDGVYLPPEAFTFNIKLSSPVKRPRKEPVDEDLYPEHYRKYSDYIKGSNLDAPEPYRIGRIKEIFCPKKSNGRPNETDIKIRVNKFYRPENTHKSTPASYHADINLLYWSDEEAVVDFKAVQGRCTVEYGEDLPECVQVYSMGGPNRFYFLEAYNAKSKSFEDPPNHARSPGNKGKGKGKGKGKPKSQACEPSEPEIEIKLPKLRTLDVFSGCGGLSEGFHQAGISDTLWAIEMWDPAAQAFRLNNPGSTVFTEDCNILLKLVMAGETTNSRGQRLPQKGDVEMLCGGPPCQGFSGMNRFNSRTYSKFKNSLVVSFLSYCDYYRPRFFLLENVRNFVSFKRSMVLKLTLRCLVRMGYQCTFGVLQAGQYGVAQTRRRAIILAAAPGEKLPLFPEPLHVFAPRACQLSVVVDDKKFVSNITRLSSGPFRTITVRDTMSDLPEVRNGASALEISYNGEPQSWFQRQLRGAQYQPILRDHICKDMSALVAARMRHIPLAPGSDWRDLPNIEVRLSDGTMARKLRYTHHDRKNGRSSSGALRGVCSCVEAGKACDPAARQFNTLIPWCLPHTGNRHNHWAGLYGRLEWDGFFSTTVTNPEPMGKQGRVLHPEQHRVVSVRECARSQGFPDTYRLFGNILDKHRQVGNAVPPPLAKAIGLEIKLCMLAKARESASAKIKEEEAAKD
Ras and Rab interactor 1/Tyrosine-protein kinase ABL1, sequence (P00519 whole entry): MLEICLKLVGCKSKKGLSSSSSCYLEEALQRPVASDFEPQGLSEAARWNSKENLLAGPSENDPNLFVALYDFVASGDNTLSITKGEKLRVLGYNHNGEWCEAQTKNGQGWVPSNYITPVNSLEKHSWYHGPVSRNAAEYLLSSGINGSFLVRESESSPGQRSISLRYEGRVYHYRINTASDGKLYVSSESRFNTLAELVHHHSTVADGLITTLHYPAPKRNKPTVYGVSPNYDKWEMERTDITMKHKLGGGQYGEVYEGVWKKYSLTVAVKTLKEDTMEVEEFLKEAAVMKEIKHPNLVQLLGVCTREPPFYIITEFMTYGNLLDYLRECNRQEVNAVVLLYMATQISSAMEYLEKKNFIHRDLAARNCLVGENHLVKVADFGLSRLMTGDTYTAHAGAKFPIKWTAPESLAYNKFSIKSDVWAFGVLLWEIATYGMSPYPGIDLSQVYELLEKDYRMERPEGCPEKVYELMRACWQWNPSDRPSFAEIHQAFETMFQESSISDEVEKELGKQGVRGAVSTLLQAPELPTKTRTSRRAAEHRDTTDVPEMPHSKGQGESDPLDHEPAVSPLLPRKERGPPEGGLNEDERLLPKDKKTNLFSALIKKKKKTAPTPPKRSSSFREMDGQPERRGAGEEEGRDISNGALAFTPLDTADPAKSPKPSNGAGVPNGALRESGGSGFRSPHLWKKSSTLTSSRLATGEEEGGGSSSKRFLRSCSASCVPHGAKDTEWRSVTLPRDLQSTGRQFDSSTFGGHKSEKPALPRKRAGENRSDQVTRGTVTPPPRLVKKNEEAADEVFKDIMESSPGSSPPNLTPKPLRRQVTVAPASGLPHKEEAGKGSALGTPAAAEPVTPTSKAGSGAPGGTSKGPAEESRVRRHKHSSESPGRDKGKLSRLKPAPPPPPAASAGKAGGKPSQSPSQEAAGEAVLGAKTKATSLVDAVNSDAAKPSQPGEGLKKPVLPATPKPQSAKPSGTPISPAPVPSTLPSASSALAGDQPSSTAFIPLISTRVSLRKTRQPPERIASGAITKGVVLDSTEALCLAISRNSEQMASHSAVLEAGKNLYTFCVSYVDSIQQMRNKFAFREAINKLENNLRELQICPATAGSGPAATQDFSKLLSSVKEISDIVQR
Ras and Rab interactor 1/Tyrosine-protein kinase ABL1, sequence (Q13671 whole entry): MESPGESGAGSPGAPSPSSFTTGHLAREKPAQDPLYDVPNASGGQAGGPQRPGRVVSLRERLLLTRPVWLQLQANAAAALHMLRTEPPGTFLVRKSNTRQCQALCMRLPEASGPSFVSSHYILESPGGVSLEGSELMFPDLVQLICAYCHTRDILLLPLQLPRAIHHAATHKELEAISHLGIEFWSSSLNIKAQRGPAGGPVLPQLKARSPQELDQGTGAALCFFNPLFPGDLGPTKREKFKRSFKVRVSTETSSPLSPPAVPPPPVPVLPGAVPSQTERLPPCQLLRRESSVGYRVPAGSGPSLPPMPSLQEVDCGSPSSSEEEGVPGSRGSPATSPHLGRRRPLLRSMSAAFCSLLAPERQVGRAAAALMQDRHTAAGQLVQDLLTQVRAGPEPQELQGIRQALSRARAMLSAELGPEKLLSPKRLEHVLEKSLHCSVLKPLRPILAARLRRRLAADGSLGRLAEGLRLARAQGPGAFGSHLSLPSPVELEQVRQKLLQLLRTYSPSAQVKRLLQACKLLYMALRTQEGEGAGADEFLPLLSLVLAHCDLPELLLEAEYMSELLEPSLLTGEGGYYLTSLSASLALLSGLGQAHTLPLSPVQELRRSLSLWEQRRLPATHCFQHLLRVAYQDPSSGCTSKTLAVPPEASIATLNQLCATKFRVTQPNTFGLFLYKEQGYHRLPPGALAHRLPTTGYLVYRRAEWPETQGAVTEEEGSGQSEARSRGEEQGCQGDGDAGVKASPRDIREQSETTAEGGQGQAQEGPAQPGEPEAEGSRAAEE
Cytochrome P450 2C19, sequence (P33261 whole entry): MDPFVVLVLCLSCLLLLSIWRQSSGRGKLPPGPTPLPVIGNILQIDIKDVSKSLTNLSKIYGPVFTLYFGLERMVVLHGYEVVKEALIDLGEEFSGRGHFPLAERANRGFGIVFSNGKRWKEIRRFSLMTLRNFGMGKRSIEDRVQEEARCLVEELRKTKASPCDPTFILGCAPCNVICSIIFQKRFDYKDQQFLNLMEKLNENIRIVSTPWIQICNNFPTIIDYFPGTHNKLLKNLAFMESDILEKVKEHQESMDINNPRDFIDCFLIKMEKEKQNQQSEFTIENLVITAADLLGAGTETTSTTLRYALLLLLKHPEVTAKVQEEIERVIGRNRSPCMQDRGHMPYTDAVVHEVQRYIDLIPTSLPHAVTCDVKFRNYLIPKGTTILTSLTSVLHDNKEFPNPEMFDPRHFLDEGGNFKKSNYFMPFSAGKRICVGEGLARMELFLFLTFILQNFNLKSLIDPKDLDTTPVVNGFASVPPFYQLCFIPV

COc1ccc(S(=O)(=O)N2CCN(C(=O)c3cc4c(s3)CCC4)CC2)cc1
IC50 [1]: 1.61 µM (active)
IC50 [2]: 11.3 µM (active)
CC50 [3]: > 40 µM (active)

COCCN(C(=O)C1CC1)c1nnc(-c2ccc(C)cc2)s1
IC50 (Coagulation factor XII): > 50 µM (inactive)

COC(=O)c1cccc(NC(=O)c2ccc[n+]([O-])c2)c1
IC50 [4]: 18 µM (inactive)

COc1cccc(-c2csc(N3CCN(CC(=O)Nc4ccc5c(c4)OCO5)CC3)n2)c1
AC50 [5]: 17.2 µM (active)

CN(C)c1ccc(C(=S)N2CCN(c3ccc([N+](=O)[O-])cc3)CC2)cc1
IC50 (Coagulation factor XII): > 50 µM (inactive)

O=C(O)c1[nH]c2ccccc2c1C(c1c(F)cccc1Cl)c1c(C(=O)O)[nH]c2ccccc12
AC50 [6]: 69.9 µM (active)

COc1ccc(NC(=O)CN(C)C(=O)CNC(=O)c2sc3ccccc3c2Cl)cc1
AC50 (HeLa): 41.6 µM (active)

c1ccc(CCNc2nnnn2-c2ccccc2)cc1
AC50 (Cytochrome P450 2C19): 1.78 µM (inconclusive)
IC50 (Protein skinhead-1): > 100 µM (inactive)
AC50 [5]: 9.58 µM (active)
AC50 (Cytochrome P450 1A2): 2.51 µM (inconclusive)
AC50 (Cytochrome P450 2C9): 11.2 µM (inconclusive)

CCOC(=O)c1cc2cc(OCc3ccccc3)ccc2nc1C
AC50 [7]: 3.93 µM (active)

N#C/C(=C\C1=C(N2CCOCC2)C(=C/c2cccc([N+](=O)[O-])c2)/CC1)C(=O)Nc1ccccc1F
EC50 [8]: > 99 µM (inactive)
EC50 [9]: > 99 µM (inactive)

CSc1ccc(-c2nnn(Cc3ccc(C)cc3)n2)cc1
AC50 (HeLa): 98 µM (active)
